Reference: article PMC5515969, “Effects of 31 FDA approved small-molecule kinase inhibitors on isolated rat liver mitochondria” (Archives of Toxicology, 2016)
Where two headings read alike, the source gives them in different places.

Assays:
[1] = cited from earlier work
RCC IV = RCC IV activity in submitochondrial particles; format: biochemical, rat; set-up: key to RCC IV at 50XCmax / RCC IV at 100XCmax: activity relative to DMSO-treated controls (control set as 1 = 100%); conditions: 50XCmax; DMSO treated samples set as 1; in %
Procedure, shortened: (§1)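 Abs 340 nm (I/V) or 600 nm (II), 1-min reads × 6 min; 550 nm (III, IV), 10-s reads × 2 min. RCC I = rotenone-free minus rotenone rate. DMSO control = 1.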

RCC II = target: T1, RCC II (Rattus norvegicus, UniProt P21913+Q641Z9+Q6PCT8+Q920L2); test: RCC II activity in submitochondrial particles; format: biochemical; set-up: key: activity relative to DMSO-treated controls (control set as 1 = 100%); conditions: DMSO treated samples set as 1
T1 construct: Submitochondrial particles were prepared by subjecting the intact mitochondria to three successive freeze–thaw cycles; from tissue; host or cells: rat liver mitochondria, used as submitochondrial particles
T1 sequence (Q920L2 35-656): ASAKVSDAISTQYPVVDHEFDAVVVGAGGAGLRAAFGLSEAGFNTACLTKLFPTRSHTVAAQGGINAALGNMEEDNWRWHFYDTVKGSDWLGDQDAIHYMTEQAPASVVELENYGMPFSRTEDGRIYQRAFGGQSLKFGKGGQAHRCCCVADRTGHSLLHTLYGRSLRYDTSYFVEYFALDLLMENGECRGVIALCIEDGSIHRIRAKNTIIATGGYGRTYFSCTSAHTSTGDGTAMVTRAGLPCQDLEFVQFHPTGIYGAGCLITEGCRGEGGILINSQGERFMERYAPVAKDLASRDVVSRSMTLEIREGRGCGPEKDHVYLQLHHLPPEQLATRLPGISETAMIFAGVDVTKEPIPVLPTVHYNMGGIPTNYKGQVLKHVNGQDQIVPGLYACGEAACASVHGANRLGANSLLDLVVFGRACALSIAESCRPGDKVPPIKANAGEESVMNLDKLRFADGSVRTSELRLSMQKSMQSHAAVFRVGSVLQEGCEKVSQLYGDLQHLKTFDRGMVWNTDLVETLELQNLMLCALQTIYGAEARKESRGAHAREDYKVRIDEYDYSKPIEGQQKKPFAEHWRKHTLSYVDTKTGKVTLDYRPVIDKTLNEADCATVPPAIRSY
T1 sequence (P21913 31-282): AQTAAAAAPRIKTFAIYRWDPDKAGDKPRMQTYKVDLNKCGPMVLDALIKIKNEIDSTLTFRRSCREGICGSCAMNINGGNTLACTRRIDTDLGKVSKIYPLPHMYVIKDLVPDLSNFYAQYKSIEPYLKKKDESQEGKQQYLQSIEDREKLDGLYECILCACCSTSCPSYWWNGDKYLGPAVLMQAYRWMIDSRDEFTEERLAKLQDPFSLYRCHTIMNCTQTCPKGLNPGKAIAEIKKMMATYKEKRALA
T1 sequence (Q641Z9 1-169): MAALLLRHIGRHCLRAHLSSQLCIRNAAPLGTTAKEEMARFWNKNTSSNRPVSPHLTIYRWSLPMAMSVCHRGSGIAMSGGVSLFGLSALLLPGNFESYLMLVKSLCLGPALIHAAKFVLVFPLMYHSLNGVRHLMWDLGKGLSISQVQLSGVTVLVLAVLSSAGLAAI
T1 sequence (Q6PCT8 57-159): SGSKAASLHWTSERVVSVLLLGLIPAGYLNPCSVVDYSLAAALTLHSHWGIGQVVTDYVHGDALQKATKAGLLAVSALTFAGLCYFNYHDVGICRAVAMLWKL
Procedure, shortened: as §1

[2] = cited from earlier work; remark: listed apart in the source
RCC V = RCC V activity in submitochondrial particles; format: biochemical, rat; conditions: DMSO treated samples set as 1; on RCC V at 5XCmax: key: 0 indicates that the drug had no effects (negative)
Procedure, shortened: as §1

[3] = tested on: isolated rat liver mitochondria; test: Mitochondrial swelling (absorbance at 535 nm); format: biochemical; conditions: difference in signal between KI and DMSO treated samples at the end of experiments; on Swelling 5XCmax: key: 0 indicates that the drug had no effects (negative)
RCC I = RCC I activity in submitochondrial particles; format: biochemical, rat; set-up: key to RCC I at 10XCmax / RCC I at 100XCmax / RCC I at 50XCmax / RCC I at 30XCmax / RCC I at 20XCmax: activity relative to DMSO-treated controls (control set as 1 = 100%); conditions: 10XCmax; DMSO treated samples set as 1
Procedure, shortened: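 First, submitochondrial particles (1 mg/ml) are incubated with inhibitor for 15 min. Next, complex activities are followed spectrophotometrically, with RCC I taken as the difference between buffers lacking and containing rotenone. Finally, activities are expressed relative to DMSO controls set at 1.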

[4] = tested on: isolated rat liver mitochondria; test: Mitochondrial oxygen consumption (glutamate/malate or succinate driven, state 4 and state 3); format: biochemical; conditions: DMSO treated samples set as 1; on State 3 respiration driven by succinate at 10XCmax: key: 0 indicates that the drug had no effects (negative); on State 3 respiration driven by succinate at 1XCmax: key: 0 indicates that the drug had no effects (negative)
Procedure, shortened: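 Oxygen uptake on glutamate/malate or on succinate defined state 4; ADP added 3 min later gave state 3. Mitochondria isolated from rat liver by differential centrifugation, adjusted to 1 mg/ml and pretreated 5 min with inhibitor (0.1% DMSO final). Values relative to DMSO control, set to 1.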

[5] = tested on: isolated rat liver mitochondria; test: Mitochondrial inner membrane potential (MMP), Rhodamine 123; format: biochemical; conditions: difference in signal between KI and DMSO treated samples at the end of experiments
From the text: Fig. 3 KI effects on mitochondrial inner membrane potential (MMP). […] In a, c, data are means and standard derivations from three separate experiments. *p < 0.05 as compared to DMSO-treated samples at the end of experiments. In b, data are means of two independent experiments

RCC III = RCC III activity in submitochondrial particles; format: biochemical, rat; set-up: key to RCC III at 100XCmax: activity relative to DMSO-treated controls (control set as 1 = 100%); conditions: 100XCmax
Procedure, shortened: as §1

In the case of `COC(=O)c1ccc2c(c1)NC(=O)/C2=C(\Nc1ccc(N(C)C(=O)CN2CCN(C)CC2)cc1)c1ccccc1` [Nintedanib], the Cmax ([1]; human therapeutic Cmax at FDA recommended dosages, ref product labeling and drug approval packages at the official FDA website) is given as 0.06 µM, the “Cmax (ng or µg/ml)” value ([1]; human therapeutic maximal blood concentration, ref product labeling) is given as 0.0349 µg/mL and the Cmax ([1]; read-out: Cmax at µM, human therapeutic maximal blood concentration, ref product labeling) is given as 0.06 µM. For the same compound, the “RCC IV at 50XCmax” value (RCC IV) was 0, the “RCC II at 1.0XCmax” value (RCC II; 1.0XCmax) was 0 and the “RCC II at 2.5XCmax” value (RCC II; 2.5XCmax) was 0. For the same compound, the “RCC II at 5XCmax” value (RCC II; 5XCmax) was 0, the “RCC II at 10XCmax” value (RCC II; 10XCmax) was 0 and the “RCC II at 20XCmax” value (RCC II; 20XCmax) was 0. For the same compound, the “RCC II at 30XCmax” value (RCC II; 30XCmax) was 0, the “RCC II at 50XCmax” value (RCC II; 50XCmax) was 0 and the “RCC II at 100XCmax” value (RCC II; 100XCmax) was 0. For the same compound, the “DILI potential (based on labeling)” value ([2]; 1 DILI positive, 0 negative according to labeling, ref product labeling) was 1, the “Labeling for DILI” value ([2]; BBW: black box warning, W&P: Warnings and Precautions, ref product labeling) was “W&P: ALT↑” and the “labeling for DILI” value ([2]; W&P warnings and precautions, BBW black box warnings, ref FDA product labeling) was “W&P: ALT↑/monitoring”. The “DILI potential (based on labeling)” value ([2]; ref FDA product labeling) was 1, the “RCC V at 5XCmax” value (RCC V; 5XCmax) was 0 and the “RCC V at 50XCmax” value (RCC V; 50XCmax) was 0. For the same compound, the “Swelling 1XCmax” value ([3]; 1XCmax) was 0, the “Swelling 2.5XCmax” value ([3]; 2.5XCmax) was 0 and the “Swelling 5XCmax” value ([3]; 5XCmax) was 0. For the same compound, the “Swelling 10XCmax” value ([3]; 10XCmax) was 0, the “Swelling 20XCmax” value ([3]; 20XCmax) was 0 and the “Swelling 30XCmax” value ([3]; 30XCmax) was 0. For the same compound, the “Swelling 50XCmax” value ([3]; 50XCmax) was 0, the “Swelling 100XCmax” value ([3]; 100XCmax) was 0 and the “RCC I at 10XCmax” value (RCC I) was 0. The “State 3 respiration driven by glutamate/malate at 1XCmax” value ([4]; 1XCmax) was 0, the “State 3 respiration driven by succinate at 1XCmax” value ([4]; 1XCmax) was 0 and the “State 4 respiration driven by glutamate/malate at 1XCmax” value ([4]; 1XCmax) was 0. For the same compound, the “State 4 respiration driven by succinate at 1XCmax” value ([4]; 1XCmax) was 0, the “State 3 respiration driven by glutamate/malate at 2.5XCmax” value ([4]; 2.5XCmax) was 0 and the “State 3 respiration driven by succinate at 2.5XCmax” value ([4]; 2.5XCmax) was 0. The “State 4 respiration driven by glutamate/malate at 2.5XCmax” value ([4]; 2.5XCmax) was 0, the “State 4 respiration driven by succinate at 2.5XCmax” value ([4]; 2.5XCmax) was 0 and the “State 3 respiration driven by glutamate/malate at 5XCmax” value ([4]; 5XCmax) was 0. The “State 3 respiration driven by succinate at 5XCmax” value ([4]; 5XCmax) was 0, the “State 4 respiration driven by glutamate/malate at 5XCmax” value ([4]; 5XCmax) was 0 and the “State 4 respiration driven by succinate at 5XCmax” value ([4]; 5XCmax) was 0. For the same compound, the “State 3 respiration driven by glutamate/malate at 10XCmax” value ([4]; 10XCmax) was 0, the “State 3 respiration driven by succinate at 10XCmax” value ([4]; 10XCmax) was 0 and the “State 4 respiration driven by glutamate/malate at 10XCmax” value ([4]; 10XCmax) was 0. The “State 4 respiration driven by succinate at 10XCmax” value ([4]; 10XCmax) was 0, the “State 3 respiration driven by glutamate/malate at 20XCmax” value ([4]; 20XCmax) was 0 and the “State 3 respiration driven by succinate at 20XCmax” value ([4]; 20XCmax) was 0. The “State 4 respiration driven by glutamate/malate at 20XCmax” value ([4]; 20XCmax) was 0, the “State 4 respiration driven by succinate at 20XCmax” value ([4]; 20XCmax) was 0 and the “State 3 respiration driven by glutamate/malate at 30XCmax” value ([4]; 30XCmax) was 0. For the same compound, the “State 3 respiration driven by succinate at 30XCmax” value ([4]; 30XCmax) was 0, the “State 4 respiration driven by glutamate/malate at 30XCmax” value ([4]; 30XCmax) was 0 and the “State 4 respiration driven by succinate at 30XCmax” value ([4]; 30XCmax) was 0. For the same compound, the “State 3 respiration driven by glutamate/malate at 50XCmax” value ([4]; 50XCmax) was 0, the “State 3 respiration driven by succinate at 50XCmax” value ([4]; 50XCmax) was 0 and the “State 4 respiration driven by glutamate/malate at 50XCmax” value ([4]; 50XCmax) was 0. For the same compound, the “State 4 respiration driven by succinate at 50XCmax” value ([4]; 50XCmax) was 0, the “State 3 respiration driven by glutamate/malate at 100XCmax” value ([4]; 100XCmax) was 0 and the “State 3 respiration driven by succinate at 100XCmax” value ([4]; 100XCmax) was 0. For the same compound, the “State 4 respiration driven by glutamate/malate at 100XCmax” value ([4]; 100XCmax) was 0, the “State 4 respiration driven by succinate at 100XCmax” value ([4]; 100XCmax) was 0 and the “MMP measured by Rhodamine 123 at 1XCmax” value ([5]; 1XCmax) was 0. The “MMP measured by Rhodamine 123 at 2.5XCmax” value ([5]; 2.5XCmax) was 0, the “MMP measured by Rhodamine 123 at 5XCmax” value ([5]; 5XCmax) was 0 and the “MMP measured by Rhodamine 123 at 10XCmax” value ([5]; 10XCmax) was 0. The “MMP measured by Rhodamine 123 at 20XCmax” value ([5]; 20XCmax) was 0, the “MMP measured by Rhodamine 123 at 30XCmax” value ([5]; 30XCmax) was 0 and the “MMP measured by Rhodamine 123 at 50XCmax” value ([5]; 50XCmax) was 0. For the same compound, the “MMP measured by Rhodamine 123 at 100XCmax” value ([5]; 100XCmax) was 0 and the “RCC III at 100XCmax” value (RCC III) was 0.
